Two compounds from patent publication US20100113415A1, “EPHA4 RTK INHIBITORS FOR TREATMENT OF NEUROLOGICAL AND NEURODEGENERATIVE DISORDERS AND CANCER” (priority 2008, published 2010) can be followed below.

Data set [1] has as its target T1, Recombinant EphA4 kinase His6-TEV-EphA4 (aa. 615-911) (Homo sapiens, UniProt P54764).
T1 construct: His6-TEV-EphA4 (36 KD) (aa. 615-911); His6 (N); TEV cleavage site (N); made in house; host or cells: Sf9 (baculovirus)
T1 sequence (P54764 615-911): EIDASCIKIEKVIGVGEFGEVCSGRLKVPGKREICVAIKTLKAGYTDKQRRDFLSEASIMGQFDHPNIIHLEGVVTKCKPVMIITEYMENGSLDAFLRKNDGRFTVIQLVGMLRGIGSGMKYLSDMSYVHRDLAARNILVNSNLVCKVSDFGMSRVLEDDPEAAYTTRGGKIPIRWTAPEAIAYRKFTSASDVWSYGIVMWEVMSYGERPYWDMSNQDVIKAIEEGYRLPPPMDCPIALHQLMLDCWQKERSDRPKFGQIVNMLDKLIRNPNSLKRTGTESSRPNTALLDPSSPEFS
Briefly: EphA4 kinase enzymatic assay (TR-FRET). The class given is biochemical. The note with it: for IC50: 25 μM ATP, TR-FRET; for inhibition at up to 100 µM: maximum percent inhibition, titration starting at 100 μM, read-out: EphA4 Kinase max inhibition in %. The method, then:
Recombinant EphA4 kinase His6-TEV-EphA4 (36 KD) (aa. 615-911) was expressed in Sf9 using baculovirus expression system. Hi-tagged protein was purified by high performance liquid chromatography in two step, using a His Trap HP column and a heparin column. The potency of compounds to inhibit EphA4 kinase phosphorylation was measured by an enzymatic assay based on time resolved fluorescence energy transfer assay format (TR-FRET), using Eu-W1024 anti-pTyr antibody (Perkin Elmer, USA) as a donor and SureLight APC (Perkin Elmer, USA) as an acceptor.
Biotinylated Poly(Glu Tyr) peptide (50 nM) was incubated in 384-well with 25 μM ATP (Sigma) and 10 ng EphA4 kinase in NEBuffer (New England Biolabs) for 60 minutes at rt. The reaction was stopped by 15 mM of EDTA solution for 10 minutes at rt. The detection mixture containing 0.5 nM Eu-W1024 anti-pTyr antibody (Perkin Elmer, USA) and 50 nM SureLight APC (Perkin Elmer, USA) was added to the wells and the plate was incubated for 30 min at rt, while protected from light. Energy transfer signal was measured using a Victor 2V (excitation filter 340, emission filter 615 and 665, delay time 50 μs). Results were expressed as ratios of the absorbencies 665/615.
(§1) Compounds were titrated in duplicate at 11 points concentration starting at 100 μM with a 3 fold increment. Compounds were diluted in DMSO. […] Percentage inhibition for each compound was then calculated based on the value of the 100% inhibition. Concentration-response curves were represented and the concentrations for 50% inhibition (IC50) were calculated.

The test system of data set [2] is C2C12 cells. Briefly: Proliferation assay (cell confluence), C2C12 cells. The note with it: at 5 μM. In kind it is cell-based, mouse. The method, then:
C2Cl2 were plated at 15,000 cells per well and then differentiated into myotubes with DMEM supplemented with 2% horse serum for 3 days in 24 well ImageLock™ plate (Essen Instruments, MI, USA). Primary Rat cortical astrocytes were plated at 3.105 cells/ml onto 24 well ImageLock™ plate.
Cells were placed into the IncuCyte™ at 37° C. and 95% CO2/5% O2, for two to three days. During this time, the cells within each well were repeatedly imaged at fixed time intervals (every three hours). The IncuCyte™ system automatically monitored the proliferation using the percentage of confluence. Percent of confluence can be graphed over time to evaluate the characteristics of proliferation in the presence of pharmacological agents.
Compounds were tested at 5 μM in quadruplicate. The percentage of reduction of cell confluence was calculated from the AUCs in comparison with the AUCs of the control wells (1% DMSO).

The test system of data set [3] is C2C12 cells. Briefly: Toxicity (percent of cell death), C2C12 cells. The class given is cell-based. Particulars: 20 μM. The method, then:
EphA4 kinase inhibition is assessed by both an enzymatic assay measuring the phosphorylation of a purified recombinant EphA4 kinase and a cell-based assay using the activation of pGas-Luciferase system in EphA4-transfected CHO-K1 cells. The functional effects of EphA4 RTK inhibitors on cell motility and proliferation is evaluated by the scratch wound assay. The effect of EphA4 RTK inhibitors is also directly measured on the cell confluence. The counterscreen assays (cell counterscreen, Src, Jak2 and P38α kinase) identified other potential inhibitory activities of compounds unrelated to EphA4 kinase. The toxicity is measured by the percent of cell death in the different cell assays. Values represent IC50 and IP in μM calculated from the dose-response curves. Values in parentheses give the maximum percent inhibition.

In data set [4] the target is T2, P60c-src (Homo sapiens, UniProt P12931).
T2 construct: purchased Upstate biotechnology, USA
T2 sequence (P12931 whole entry): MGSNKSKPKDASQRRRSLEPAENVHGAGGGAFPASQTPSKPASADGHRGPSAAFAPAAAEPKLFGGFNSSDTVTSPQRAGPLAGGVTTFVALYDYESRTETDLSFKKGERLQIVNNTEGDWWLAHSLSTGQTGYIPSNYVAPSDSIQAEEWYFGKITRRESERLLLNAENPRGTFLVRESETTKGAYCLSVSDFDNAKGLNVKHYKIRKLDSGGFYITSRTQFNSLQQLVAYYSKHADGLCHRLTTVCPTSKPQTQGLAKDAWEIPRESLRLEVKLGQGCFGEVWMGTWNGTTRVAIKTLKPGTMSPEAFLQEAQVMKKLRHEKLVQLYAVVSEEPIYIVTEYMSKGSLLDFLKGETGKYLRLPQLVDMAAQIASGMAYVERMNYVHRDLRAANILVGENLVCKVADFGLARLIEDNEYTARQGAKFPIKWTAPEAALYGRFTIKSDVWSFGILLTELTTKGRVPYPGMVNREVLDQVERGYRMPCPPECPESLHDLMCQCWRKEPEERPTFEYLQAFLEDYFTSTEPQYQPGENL
Briefly: Src kinase counterscreen enzymatic assay (TR-FRET). The class given is biochemical. The note with it: 0.5 μM ATP. The method, then: Counterscreen assays were developed for the tyrosine kinases src kinase and Jak2 kinase, with a format essentially identical to the EphA4 kinase TR-FRET format. Jak2 (50 ng) (Cell Signaling, USA) was incubated with 0.5 μM of biotinylated FLT3 peptide (Cell Signaling, USA) in presence of 5 μM of ATP (Sigma). P60c-src (10 U/well) (Upstate biotechnology, USA) was incubated with biotinylated Poly(Glu Tyr) peptide (100 nM) in presence of 0.5 μM of ATP. The enzymatic reaction was stopped after 60 min by adding 15 mM EDTA. The detection reaction and energy transfer signal measurements were similar to those previously described. Results were expressed as ratios of the absorbencies 665/615.
as §1

The target of data set [5] is T3, P38alpha kinase (Homo sapiens, UniProt Q16539).
T3 construct: purchased Dundee Library
T3 sequence (Q16539 whole entry): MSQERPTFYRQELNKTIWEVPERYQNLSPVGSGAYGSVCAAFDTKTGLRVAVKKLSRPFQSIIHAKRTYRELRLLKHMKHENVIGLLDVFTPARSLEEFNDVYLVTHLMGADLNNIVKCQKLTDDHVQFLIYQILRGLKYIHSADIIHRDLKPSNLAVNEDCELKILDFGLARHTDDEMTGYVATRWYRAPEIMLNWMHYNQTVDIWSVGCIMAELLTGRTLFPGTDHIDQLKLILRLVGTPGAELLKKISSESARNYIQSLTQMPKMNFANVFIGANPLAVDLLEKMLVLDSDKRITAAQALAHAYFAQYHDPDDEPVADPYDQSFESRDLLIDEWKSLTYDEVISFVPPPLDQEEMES
Briefly: P38 alpha kinase counterscreen assay (Caliper mobility shift). The class given is biochemical. The method, then: A counterscreen assay was performed to measure p38alpha kinase activity using the Caliper System (LifeSciences, USA). This system is based on the microfluidic technology. P38 alpha kinase activity was measured by the shift in mobility of the non-phosphorylated form when separated by electrophoresis and detected via LED (Light Emitting Diode) induced fluorescence. This assay was automated following the manufacturer's protocol. P38alpha kinase and its substrate GST-MK2 were bought from Dundee Library.
Compounds were titrated, concentration-response curves were represented and the concentrations for 50% inhibition (IC50) were calculated.
On the technique in general: Counterscreens check selectivity or assay interference.

In the case of `CC1CCc2c(-c3ccccc3Cl)nc3[nH]nc(N)c3c2C1` (stereo not drawn) [Example 63], the figures for the IC50 in data set [1], in data set [4] and in data set [5] were 2100 nM, 8300 nM and 7300 nM, respectively. Besides, the inhibition – broadly, how much of the control response was suppressed – at up to 100 µM in data set [1] came to 99%. Moreover, the “% Reduction of Confluence C2C12 Cells” value in data set [2] was found to be 9.2% at 5 μM. Besides, the “Max Toxicity C2C12 in cells % of cell death” value in data set [3] was found to be 3%.
For `Cc1ccccc1-c1nc2[nH]nc(N)c2c2c1CCC(C)(C)C2` [Example 67], the IC50 (as a rule, the concentration at which inhibition is half-maximal) in data set [1] worked out at 1500 nM; in data set [4] it was 300 nM; in data set [5] it was 3700 nM. Besides, the inhibition at up to 100 µM in data set [1] came to 100%. In addition, in data set [2], the “% Reduction of Confluence C2C12 Cells” value is 49.2% at 5 μM. The “Max Toxicity C2C12 in cells % of cell death” value in data set [3] is given as 10%.
